Source: patent US4358444A, “2,4-Dioxacyclohexanone derivative” (Dr. L. Zambeletti S.p.A., priority 1981, dated 1982)
Like-named read-outs stand apart in the source and are kept apart here.

Key:
[1] = format: in vivo; conditions: for distribution / route of excretion/elimination: metabolite
[2] = system: citric acid aerosol induced cough; experiment: Citric acid aerosol induced cough test (antitussive activity); conditions: for antitussive activity compared with codeine (in words): 500 mg/kg oral vs codeine 25 mg/kg oral, general statement in b2
gastric mucosa = experiment: Gastrolesive activity after oral administration; format: in vivo, rats; conditions: for gastric tolerability / gastrolesive effect (in words): oral
Procedure: MR 693 and acetylsalycilic acid as the comparison substance were administered by oral route to rats fastened from at least 18 hours.
After six hours from the beginning of the experiment, the rats were sacrificed and the stomachs were opened and examined in order to verify the presence of lesions on the gastric mucosa.

[3] = system: carrageenin induced edema; experiment: Carrageenin induced edema test (antinflammatory activity); format: in vivo, rats; conditions: for reduction of the edema / antiinflammatory action compared with acetylsalicylic acid (in words): oral, equimolecular dosages
From the text: The antinflammatory properties of MR 693 have been investigated by means of the carrageenin induced edema test in rats, by administering the compound of the invention by oral route and using acetylsalycilic acid as the comparison substance, at equimolecular dosages.

[4] = system: yeast induced hypertermia; experiment: Yeast induced hypertermia test (antipyretic activity); format: in vivo, rat
From the text: This activity has been investigated by means of the yeast induced hypertermia test in the rat, taking again acetylsalycilic acid, administered at equimolecular dosages, as the comparison substance.

Acute toxicity in mice = conditions: in vivo, po; mouse, os; read-out: DL50 (the source's name)
From the text: (§1) Acute toxicity tests have been carried out in mice rats, by administering the compound of the invention by oral and intraperitoneal route.

Acute toxicity in rats = conditions: in vivo, rat, read-out: DL50 (the source's name)
From the text: as §1

rats [5] = experiment: Subacute toxicity in rats, oral, four weeks; format: in vivo; conditions: four consecutive weeks
From the text: (§2) Subacute toxicity studies have been carried out on rats and dogs, by administering MR 693 by oral route for four consecutive weeks.
(§3) The parameters which have been taken into consideration are as follows:
(§4) glycosuria, proteinuria, albuminuria and haematuria
(§5) weight of the principal organs

dogs [6] = experiment: Subacute toxicity in dogs, oral, four weeks; format: in vivo; conditions: four consecutive weeks
From the text: as §2, §3, §4, §5

rats [7] = experiment: Chronic toxicity in rats, oral, 24 weeks; format: in vivo
From the text: (§6) Chronic toxicity studies have been carried out on rats, administered by oral route with MR 693 for 24 consecutive weeks, and dogs, administered by oral and rectal route with the compound of the invention again for 24 weeks.
as §3
(§7) biochemical examination of the blood glycosuria, proteinuria, haematuria, albuminuria
(§8) weight and hystological control of the principal organs;

dogs [8] = experiment: Chronic toxicity in dogs, oral and rectal, 24 weeks; format: in vivo
From the text: as §6, §3, §7, §8

rats [9] = experiment: Theratogenesis studies in rats; format: in vivo; conditions: oral, all along the pregnancy
From the text: (§9) Theratogenesis studies have been carried out on rats and rabbits, which have been treated by oral route with MR 693 all along the duration of the pregnancy. […]
(§10) number of pregnant females […]
(§11) initial body weight/end body weight (of the mothers) […]
(§12) average number of lived foetuses total number of dead foetuses total number of re-absorptions average weight of lived foetuses

rabbits = experiment: Theratogenesis studies in rabbits; format: in vivo; conditions: oral, all along the pregnancy
From the text: as §9, §10, §11, §12

esterase = experiment: In vitro metabolism (enzymatic hydrolysis); format: in vitro ADME
From the text: Studies have been performed both in vitro and in vivo.

[10] = Toxicity, overall statement (acute, subacute and chronic); format: in vivo
From the text: as §1, §2, §6

[11] = 250 mg/kg os (equimolecular dosage)
[12] = listed as 3-(2-methoxy-phenoxy)-3-methyl-benzo-2,4-dioxacyclohexanone
[13] = 400 mg/kg os (equimolecular dosage)

O=C(O)c1ccccc1O [salycilic acid]
concentration observed in the lungs compared with plasma and liver ([1]; after administration of MR 693): higher than those observed in the plasma and the liver | distribution ([1]; after administration of MR 693): enter the systemic circulation | route of excretion/elimination ([1]; after administration of MR 693): excreted by urinary route

COc1ccc2c3c1O[C@H]1[C@@H](O)C=C[C@H]4[C@@H](C2)N(C)CC[C@@]341 [Codeine, codeine, reference compound]
% Inhibition of cough-strokes ([2]; 12.5 mg/kg i.p.): 93.7% | % Inhibition of cough-strokes ([2]; 25 mg/kg os): 76.7% | inhibition at 12.5 mg/kg ([2]; Cavia porcellus, ip, read-out: % Inhibition of cough-strokes, 12.5 mg/kg i.p.): 93%

CC(=O)Oc1ccccc1C(=O)O [Acetylsalycilic acid, acetylsalicylic acid, reference compound]
Average diameter of the lesions (gastric mucosa; 250 mg/kg os, six hours (equimolecular dosage)): 3.7 ± 0.8 mm | % Inhibition of the edema [3, 11]: 33% | % Inhibition (yeast induced hypertermia) [4, 11]: 103% | concentration observed in the lungs compared with plasma and liver ([1]; in vivo): higher than those observed in the plasma and the liver | distribution ([1]; after administration of MR 693): enter the systemic circulation

COc1ccccc1O [guaiacol]
pulmonary tropism ([1]; assumed from lung concentrations and pulmonary tropism of guaiacol): marked pulmonary tropism | absorption ([1]; in vivo, after oral administration of MR 693): mainly absorbed by pre-systemic route | distribution ([1]; after administration of MR 693): enters the lungs through the lymphatic vessels | route of excretion/elimination ([1]; after administration of MR 693): eliminated by respiratory route

COc1ccccc1OC1(C)OC(=O)c2ccccc2O1 (stereo not drawn) [MR 693, 3-(2-methoxy-phenoxy)-3-methyl-benzo-2,4-dioxacyclohexanone]
Average diameter of the lesions (gastric mucosa; 100 mg/kg os, six hours): 0 mm | Average diameter of the lesions (gastric mucosa; 400 mg/kg os, six hours (equimolecular dosage)): 0 mm | gastric tolerability / gastrolesive effect (in words) (gastric mucosa): perfectly tolerated at gastric level | gastric tolerability / gastrolesive effect (in words) (gastric mucosa; [12]): complete absence of any gastrolesive effect | % Inhibition of the edema [3, 13]: 30% | reduction of the edema / antiinflammatory action compared with acetylsalicylic acid (in words) [3]: marked reduction of the edema | reduction of the edema / antiinflammatory action compared with acetylsalicylic acid (in words) [3, 12]: practically is the same as that possessed by acetylsalicylic acid | % Inhibition (yeast induced hypertermia) [4, 13]: 86% | antipyretic activity compared with acetylsalicylic acid (in words) ([4]; oral, equimolecular dosages, listed as 3-(2-methoxy-phenoxy)-3-methyl-benzo-2,4-dioxacyclohexanone): only slightly lower than that displayed, again, by acetylsalicylic acid | LD50 (Acute toxicity in mice): > 3000 mg/kg | LD50 (Acute toxicity in rats; ip, i.p.): 1750 mg/kg | LD50 (Acute toxicity in rats; po, os): > 3000 mg/kg | alterations or malformations (subacute toxicity) (rats [5]): in no case alterations or malformations ascribable to the treatment | alterations or malformations (subacute toxicity) (dogs [6]): in no case alterations or malformations ascribable to the treatment | alterations or anatomo-pathological states (chronic toxicity) (rats [7]; 24 consecutive weeks): no alterations or particularly significant anatomo-pathological states | alteration of the mucosae of the gastro-intestinal tract (rats [7]; 24 weeks): did not show any alteration of the mucosae | alteration of the mucosae of the gastro-intestinal tract (dogs [8]): did not show any alteration of the mucosae | alterations or anatomo-pathological states (chronic toxicity) (dogs [8]): no alterations or particularly significant anatomo-pathological states | theratogenesis: alterations (rats [9]): no alteration | theratogenesis: number of litters alive (rats [9]): no variation of the number of litters alive | theratogenesis: somatic or skeletal malformations (rats [9]): neither somatic not skeletal malformations have been observed | theratogenesis: alterations (rabbits): no alteration | theratogenesis: number of litters alive (rabbits): no variation of the number of litters alive | theratogenesis: somatic or skeletal malformations (rabbits): neither somatic not skeletal malformations have been observed | enzymatic hydrolysis (metabolites) (esterase): enzymatically hydrolyzed to acetylsalycilic acid and guaiacol | organs displaying the highest esterase activity (esterase): the lungs and the kidneys | pulmonary tropism ([1]; in vivo): relative better pulmonary tropism | absorption ([1]; in vivo, po): absorbed as such for the major part | metabolites in vivo ([1]; in vivo, po): hydrolyzed to acetylsalycilic acid, salycilic acid and guaiacol | toxicity (in words) [10, 12]: almost negligible toxicity (both acute, subacute and chronic) | toxicity (in words) ([10]; listed as mr 693): very little toxic compound | reduction over the controls of the number of cough-strokes (in words) ([2]; 500 mg/kg oral): marked reduction | antitussive activity compared with codeine (in words) [2]: better than that displayed, under the same conditions, by an oral dosage of 25 mg/kg of codeine | antitussive activity compared with codeine (in words) [2, 12]: higher than that of codeine | % Inhibition of cough-strokes ([2]; 500 mg/kg os): 84.3% | inhibition at 100 mg/kg ([2]; Cavia porcellus, ip, read-out: % Inhibition of cough-strokes): 100%
